Assay results taken from paper PMC10498667 (Chemical Science, 2023).
pIC50: −log10 of the molar value. Like-named read-outs stand apart in the source and are kept apart here.

Legend:
Format in all cases: biochemical
Aβ42 [1] = biological target: T1, Aβ42 (Homo sapiens, UniProt P05067); test: Dot blot assay with anti-oligomer (A11) and anti-fibril (OC) antibodies; conditions: flavonoid 200 μM, up to 24 h
T1 construct: purchased Peptide Institute, Inc. (Osaka, Japan)
From the text: Moreover, to investigate the effects of the flavonoids on the oligomerization and fibrilization of metal-free Aβ42 and metal–Aβ42, we performed the dot blot assay employing anti-oligomer (A11) and anti-fibril (OC) antibodies,[23] as illustrated in Fig. S12. ^† It should be noted that the thioflavin-T (ThT) assay utilized for monitoring the formation of β-sheet-rich aggregates cannot be carried out under our experimental conditions since the absorption windows of 4, 5, and 4b interfere with the excitation and emission wavelengths of ThT (Fig. S13 ^†). […]
Dot Blot Assay. The samples containing Ab42 (100 µM) with or without CuCl2 or ZnCl2 (100 µM) in the absence and presence of flavonoids (200 µM; 1% v/v DMSO) were prepared in 20 mM HEPES, pH 7.4, 150 mM NaCl and incubated for various time points (0, 1, 2, 3, 4, 6, 12, and 24 h). […] The membrane was incubated with a primary antibody [i.e., 6E1026 for Ab species (1:2,000), A1126 for Ab oligomers (1:1,000; Invitrogen, Carlsbad, CA, USA), or OC26 for Ab fibrils (1:2,000; Merch Millipore, Billerica, MA, USA)] in the solution of BSA (2% w/v in TBS-T) for 4 h at room temperature. […] A homemade ECL kit21–23 was used to visualize the results on a ChemiDoc MP Imaging System.
The intensity observed from A11- or OC-detectable Ab species was quantified, relative to that detected from 6E10, by the ImageJ software. […]

Aβ42 [2] = biological target: T1, Aβ42; test: Aβ42 aggregation inhibition experiments (gel/western blot, TEM); conditions: flavonoid 50 μM, 24 h
Procedure: To verify whether a series of nine flavonoids can modulate the aggregation of Aβ with and without metal ions, the molecular weight (MW) distribution and morphology of the resultant Aβ species were determined by gel electrophoresis with western blotting (gel/western blot) using an anti-Aβ antibody (6E10) and transmission electron microscopy (TEM), respectively. Two types of experiments were carried out employing two major Aβ isoforms, i.e., Aβ42 and Aβ40:[25] (i) inhibition studies to identify the effect of 1–5, 1a, 1b, 4a, and 4b on the formation of Aβ aggregates; (ii) disaggregation studies to evaluate if the flavonoids with reactivities towards Aβ aggregation in inhibition studies can disassemble preformed Aβ aggregates or modulate their further aggregation, as illustrated in Fig. 4 and S5–S9. ^† Moreover, the solutions containing the flavonoids and Cu(II) were probed by electronic absorption (Abs) spectroscopy to monitor their metal binding. […] As expected, no Abs change of 1a and 4a composed of methoxy groups on the A ring was detected by addition of Cu(II). […]
Ab Aggregation Experiments. Ab was dissolved in ammonium hydroxide [1% w/w NH4OH (aq)] and the resulting solution was aliquoted, lyophilized overnight, and stored at –80 °C. A stock solution of Ab was then prepared by dissolving the lyophilized peptide with NH4OH (1% w/w, aq; 10 µL) and diluting with ddH2O. All Ab samples were prepared following previously reported procedures.21,22 The concentration of the peptide solution was determined by measuring its […]
solution (20 mM HEPES, pH 7.4, 150 mM NaCl) was used for preparing Ab samples. For the inhibition studies, flavonoids (final concentration, 50 µM; 1% v/v DMSO) were added to the samples of Ab (25 µM) in the absence and presence of CuCl2 or ZnCl2 (25 µM) followed by incubation for 24 h at 37 °C with constant agitation. For the disaggregation studies, Ab (25 µM) was incubated with and without CuCl2 or ZnCl2 (25 µM) for 24 h at 37 °C with constant agitation to generate preformed Ab aggregates. The resultant Ab aggregates were then treated with flavonoids (50 µM) and incubated for additional 24 h with constant agitation. For the additional disaggregation experiments, preformed Ab42 aggregates (25 µM) or Ab42 seeds (10% v/v) with or without metal ions (25 µM for CuCl2 and ZnCl2) were incubated with flavonoids (50 µM) for 24 h with constant agitation. The resultant Ab aggregates were then treated with freshly prepared Ab42 […]
(25 µM) and incubated for additional 24 h with constant agitation.
Gel/Western Blot. The resultant Ab species from the aggregation experiments were analyzed by gel/Western blot using an anti-Ab antibody (6E10, Covance, Princeton, NJ, USA).21,22 Each sample (10 µL) was separated on a 10–20% tricine gel (Invitrogen). Following separation, the proteins were transferred onto nitrocellulose membranes and blocked with bovine serum albumin (BSA, 3% w/v; Sigma-Aldrich) in Tris-buffered saline (TBS) containing 0.1% v/v Tween-20 (Sigma-Aldrich) (TBS-T) for 4 h at room temperature or overnight at 4 °C. The membranes were incubated with 6E10 (1:2,000) in the solution of BSA (2% w/v in TBS-T) for 4 h at room temperature. […] A homemade ECL kit21–23 was used to visualize gel/Western blots on a ChemiDoc MP Imaging System (Bio-Rad).
TEM. Samples for TEM were prepared following previously reported methods.22,24 Glow-discharged grids (Formvar/Carbon 300-mesh; Electron Microscopy Sciences, Hatfield, PA, USA) were treated with Ab samples (25 µM; 7.5 µL) for 2 min at room temperature. Excess sample was removed using filter paper followed by washing with ddH2O (3x). Each grid incubated with uranyl […]

[3] = biological target: T2, Electric eel acetylcholinesterase (eeAChE) (Electrophorus electricus, UniProt O42275); test: Fluorometric AChE activity assay
T2 construct: purchased Invitrogen (AChE assay kit)
T2 sequence (O42275 24-633): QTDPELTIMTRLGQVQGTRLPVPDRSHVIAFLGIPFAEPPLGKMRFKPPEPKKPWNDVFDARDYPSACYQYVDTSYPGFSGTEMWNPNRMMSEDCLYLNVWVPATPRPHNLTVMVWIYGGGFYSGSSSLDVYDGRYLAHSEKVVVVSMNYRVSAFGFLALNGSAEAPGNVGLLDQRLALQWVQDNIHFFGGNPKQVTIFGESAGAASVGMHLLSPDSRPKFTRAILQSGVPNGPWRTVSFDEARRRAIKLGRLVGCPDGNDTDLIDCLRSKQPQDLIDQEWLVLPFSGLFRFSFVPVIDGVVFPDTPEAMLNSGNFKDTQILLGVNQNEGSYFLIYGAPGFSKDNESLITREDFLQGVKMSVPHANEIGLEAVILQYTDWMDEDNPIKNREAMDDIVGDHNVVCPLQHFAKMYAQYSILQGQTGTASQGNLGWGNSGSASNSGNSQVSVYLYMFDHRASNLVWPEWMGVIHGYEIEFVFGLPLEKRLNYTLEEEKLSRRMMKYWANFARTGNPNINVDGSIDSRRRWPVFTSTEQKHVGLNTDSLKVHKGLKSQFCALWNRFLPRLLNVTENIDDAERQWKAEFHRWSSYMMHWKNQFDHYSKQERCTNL
From the text: Inhibiting the activity of AChE can maintain a proper level of ACh under dysregulated cholinergic conditions.[10,11] Thus, the inhibitory capability of flavonoids against AChE was investigated by a previously reported fluorescent AChE assay with slight modifications.[60] […] The inclusion of three hydroxyl groups on the A ring is critical for controlling the catalytic activity of AChE, as previously reported,[49] whereas the incorporation of a chloro substituent, with three hydroxyl groups, and methoxy moieties instead of hydroxyl groups on the A ring can decrease such inhibitory activity. Flavonoids 2, 3, and 1b over 1 illustrates the importance of the position of hydroxyl groups on the A ring and the isoflavone variation in directing the flavonoids' ability to inhibit the activity of AChE. […]
All experiments were performed in triplicate.
AChE Activity Assay. The AChE inhibitory activity of flavonoids was measured by a fluorometric AChE assay kit (Invitrogen) following the manufacturer ’s protocol with slight modifications.
Electric eel acetylcholinesterase (eeAChE) was dissolved and diluted with a working solution. The eeAChE solution (50 µL) was added into a 96-well plate. Various concentrations of flavonoids were then introduced into the 96-well plate. The final concentrations of flavonoids were as follow: […]
µM). After shaking, the mixture of eeAChE and flavonoids was pre-incubated for 15 min. A reaction mixture containing acetylcholine, an AChE probe, and AbRedTM was added into the 96-well plate to initiate the reaction. The AChE activity was calculated based on the fluorescence intensity (lex/lem = 571/585 nm) of the wells that was detected after 15 min incubation. Data were normalized to the control (no inhibitor). All experiments were performed in triplicate. […]
For the disaggregation studies, Ab (25 µM) was incubated with and without CuCl2 or ZnCl2 (25 µM) for 24 h at 37 °C with constant agitation to generate preformed Ab aggregates. The resultant Ab aggregates were then treated with flavonoids (50 µM) and incubated for additional 24 h with constant agitation. For the additional disaggregation experiments, preformed Ab42 aggregates (25 µM) or Ab42 seeds (10% v/v) with or without metal ions (25 µM for CuCl2 and ZnCl2) were incubated with flavonoids (50 µM) for 24 h with constant agitation. The resultant Ab aggregates were then treated with freshly prepared Ab42

[4] = Cu(II)–Aβ42 or Zn(II)–Aβ42 100 μM
[5] = Zn(II)–Aβ42, Aβ 25 μM, Zn(II) 25 μM

T1 sequence (P05067 672-713 limits assumed): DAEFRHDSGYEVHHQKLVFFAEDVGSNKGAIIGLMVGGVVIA

SMILES: COc1cc(OC)c2c(=O)cc(-c3ccccc3)oc2c1 [1a, 5,7-dimethoxyflavone]
- A11- and OC-detectable signals (oligomers and fibrils) (Aβ42 [1]; [4]): not significantly varied
- A11- and OC-detectable signals (oligomers and fibrils) (Aβ42 [1]; metal-free Aβ42 100 μM): not significantly varied
- morphology of resultant aggregates (TEM) (Aβ42 [2]; Cu(II)–Aβ42): did not indicate any noticeable morphological changes
- MW distribution of resultant species (gel/western blot) (Aβ42 [2]; [5]): a significant change in the MW distribution was not indicated
- morphology of resultant aggregates (TEM) (Aβ42 [2]; Zn(II)–Aβ42): did not indicate any noticeable morphological changes
- MW distribution of resultant species (gel/western blot) (Aβ42 [2]; metal-free Aβ42 25 μM, 37 °C): could not change the size distribution
- morphology of resultant aggregates (TEM) (Aβ42 [2]; metal-free Aβ42): little or no morphological alteration
- inhibitory activity against AChE (IC50 could not be obtained) ([3]; fluorometric assay, eeAChE): negligible inhibitory activity

SMILES: O=c1c(-c2ccccc2)coc2cc(O)cc(O)c12 [1b, 5,7-dihydroxyisoflavone]
- A11- and OC-detectable signals (oligomers and fibrils) (Aβ42 [1]; [4]): not significantly varied
- A11- and OC-detectable signals (oligomers and fibrils) (Aβ42 [1]; metal-free Aβ42 100 μM): not significantly varied
- morphology of resultant aggregates (TEM) (Aβ42 [2]; Cu(II)–Aβ42): did not indicate any noticeable morphological changes
- MW distribution of resultant species (gel/western blot) (Aβ42 [2]; [5]): a significant change in the MW distribution was not indicated
- morphology of resultant aggregates (TEM) (Aβ42 [2]; Zn(II)–Aβ42): did not indicate any noticeable morphological changes
- MW distribution of resultant species (gel/western blot) (Aβ42 [2]; metal-free Aβ42 25 μM, 37 °C): could not change the size distribution
- morphology of resultant aggregates (TEM) (Aβ42 [2]; metal-free Aβ42): little or no morphological alteration
- pIC50 [3]: 4.93

SMILES: COc1cc2oc(-c3ccccc3)cc(=O)c2c(OC)c1OC [4a, 5,6,7-trimethoxyflavone]
- A11- and OC-detectable signals (oligomers and fibrils) (Aβ42 [1]; [4]): not significantly varied
- A11- and OC-detectable signals (oligomers and fibrils) (Aβ42 [1]; metal-free Aβ42 100 μM): not significantly varied
- morphology of resultant aggregates (TEM) (Aβ42 [2]; Cu(II)–Aβ42): did not indicate any noticeable morphological changes
- MW distribution of resultant species (gel/western blot) (Aβ42 [2]; [5]): a significant change in the MW distribution was not indicated
- morphology of resultant aggregates (TEM) (Aβ42 [2]; Zn(II)–Aβ42): did not indicate any noticeable morphological changes
- MW distribution of resultant species (gel/western blot) (Aβ42 [2]; metal-free Aβ42 25 μM, 37 °C): could not change the size distribution
- morphology of resultant aggregates (TEM) (Aβ42 [2]; metal-free Aβ42): little or no morphological alteration
- pIC50 ([3]; fluorometric assay, eeAChE, read-out: IC50 for AChE inhibition): 4.28
